The record followed here is US5604256A, “Octahydronaphthalene oxime derivatives for cholesterol biosynthesis inhibition” (Sankyo Company, Limited, priority 1992, dated 1997).

Usually IC50 stands for the midpoint of a concentration-inhibition curve. A high value points to weaker potency.

In this test the target is T1, HMG-CoA reductase (Rattus norvegicus, UniProt P51639).
T1 sequence (P51639 1-887): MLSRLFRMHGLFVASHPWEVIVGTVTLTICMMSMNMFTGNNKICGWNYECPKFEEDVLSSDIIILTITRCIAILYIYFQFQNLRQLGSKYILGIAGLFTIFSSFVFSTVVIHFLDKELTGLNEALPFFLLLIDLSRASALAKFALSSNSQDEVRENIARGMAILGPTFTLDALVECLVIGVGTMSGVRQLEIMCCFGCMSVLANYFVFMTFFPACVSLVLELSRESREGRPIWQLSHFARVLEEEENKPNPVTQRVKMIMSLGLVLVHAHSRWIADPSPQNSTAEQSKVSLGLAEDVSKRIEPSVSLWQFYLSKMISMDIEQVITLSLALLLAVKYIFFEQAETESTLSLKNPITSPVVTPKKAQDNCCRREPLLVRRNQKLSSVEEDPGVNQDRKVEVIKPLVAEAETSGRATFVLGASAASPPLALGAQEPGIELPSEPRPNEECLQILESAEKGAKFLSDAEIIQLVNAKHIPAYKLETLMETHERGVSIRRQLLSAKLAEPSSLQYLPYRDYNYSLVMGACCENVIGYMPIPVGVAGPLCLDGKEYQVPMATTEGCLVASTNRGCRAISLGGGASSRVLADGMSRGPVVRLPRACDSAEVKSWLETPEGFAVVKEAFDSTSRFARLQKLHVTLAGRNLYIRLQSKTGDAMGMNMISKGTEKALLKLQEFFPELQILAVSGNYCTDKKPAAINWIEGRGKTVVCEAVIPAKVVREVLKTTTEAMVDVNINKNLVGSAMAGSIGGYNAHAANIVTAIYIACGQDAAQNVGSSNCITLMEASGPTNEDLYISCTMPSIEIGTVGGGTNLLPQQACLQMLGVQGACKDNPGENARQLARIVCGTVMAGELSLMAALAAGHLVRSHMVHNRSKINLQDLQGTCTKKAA
Kind of test: biochemical. The note with it: Table 3.

Where a name gives a salt, the structure may show the parent alone.

Source text: The determination of the inhibitory activity of the compounds was made using the method of Kuroda et al ["Biochimica et Biophysica Acta" Vol. 486, pp. 70-81 (1977)] which is a modification of the known method of D. J. Shapiro et al ["Analytical Biochemistry" Vol. 31, pp. 383-390 (1969)] with some improvements.

In the case of `CCC(C)C(=O)OC1CCC(=NOCc2cnoc2)C2=CC(=O)C(C)C(CCC(O)CC(O)CC(=O)O)C21` (stereo not drawn) [Na salt of Compound of Preparation 9], the 50% inhibitory concentration (IC50) stood at 22.8 nM.

On to `CCC(C)C(=O)OC1CCC(=NOCc2cnoc2)C2=CC(=O)C(C)C(CCC(=O)CC(O)CC(=O)O)C21` (stereo not drawn), for which the concentration for half-maximal inhibition (IC50) turned out to be 20.2 nM.

As to `CCC(C)C(=O)OC1CCC(=NOCc2c(C)noc2C)C2=CC(=O)C(C)C(CCC(O)CC(O)CC(=O)O)C21` (stereo not drawn) [Na salt of Compound of Preparation 11], the IC50 came to 17.3 nM.

For `CCC(C)C(=O)OC1CCC(=NOCc2c(C)noc2C)C2=CC(=O)C(C)C(CCC(=O)CC(O)CC(=O)O)C21` (stereo not drawn), half-maximal inhibition (IC50) was put at 16.3 nM. The IC50 values of the last two compounds are within 1.5-fold of each other.

In turn, `CCC(C)C(=O)OC1CCC(=NOCc2ccccc2)C2=CC(=O)C(C)C(CCC(=O)CC(O)CC(=O)O)C21` (stereo not drawn) gave an IC50 of 16.3 nM.

In turn, `CCC(C)C(=O)OC1CCC(=NOCc2ccccc2)C2=CC(=O)C(C)C(CCC(O)CC(O)CC(=O)O)C21` (stereo not drawn) [Na salt of Compound of Preparation 1] came in with an IC50 of 18.5 nM.
